Measured values reported in US5955423A (priority 1995, dated 1999).

Key:
[1] = test system: KB (human nasopharyngeal carcinoma) cell line; assay: Cytotoxicity against KB cell line; type: cell-based
[2] = test system: LoVo (human colon-carcinoma) cell line; assay: Cytotoxicity against LoVo cell line; type: cell-based
[3] = test system: murine leukemia (L1210 or P388), murine solid tumor, human solid tumor and low malignancy fibroblast (LML) cells
[4] = test system: Colon 38 (colon adenocarcinoma #38); conditions: Exp # 1560; SC Colon 38; 8 inj. IV; total dose 10.3 mg/kg
Procedure: (§1) Gross log kill is defined as T-C/3.2 Td where T is the median time in days for the tumors of the treated group to reach 750 mg, C is the median time in days for the tumors of the control group to reach 750 mg, and Td is the tumor volume doubling time.

H125 Human Adenosq-lung = conditions: Exp # 1823; SC H125 Human Adenosq-lung, SCID mice; 8 inj. IV; total dose 14.4 mg/kg
Procedure: as §1

[5] = test system: murine and human tumors implanted in mice
Procedure: as §1

strains of Cryptococcus = conditions: found by researchers at Merck; cited from earlier work
MX-1 Human Breast = assay: In vivo activity, SC MX-1 tumor; conditions: Exp # 1806; SC MX-1 Human Breast, SCID mice; 8 inj. IV; total dose 12 mg/kg
Procedure: as §1

M17/0 (Adr. Sens.) = assay: In vivo activity, SC M17/0 tumor; conditions: Exp # 1833; SC M17/0 (Adr. Sens.); 5 inj. IV; total dose 5.4 mg/kg
Procedure: as §1

LNCaP Human Prostate = assay: In vivo activity, SC LNCaP tumor; conditions: Exp # 1841, 6 inj. IV, total dose 6.5 mg/kg
Procedure: as §1

[6] = test system: Human Sm Cell L. DMS273 SCID; assay: In vivo activity, SC DMS273 tumor; conditions: Exp # 1596, 6 inj. IV, total dose 7.3 mg/kg
Procedure: as §1

[7] = test system: Colon 51 (colon adenocarcinoma #51); assay: In vivo activity, SC Colon 51 tumor; conditions: Exp # 1636, 7 inj. IV, total dose 28.1 mg/kg
Procedure: as §1

Mam 16/C (mammary #16/C) = assay: In vivo activity, SC Mam 16/C tumor; conditions: Exp # 1720, 5 inj. IV, total dose 13.2 mg/kg
Procedure: as §1

[8] = test system: SKOV3 (human ovarian carcinoma) cell line; assay: Cytotoxicity against SKOV3 cell line; conditions: Table 2
[9] = test system: Mam 16/Taxol (taxol-resistant mammary #16/C/RP); assay: In vivo activity, SC Mam 16/Taxol tumor; conditions: Exp # 1733, 5 inj. IV, total dose 16.5 mg/kg
Procedure: as §1

## COc1ccc(C[C@H]2NC(=O)/C=C/C[C@@H]([C@H](C)[C@H]3O[C@@H]3c3ccccc3)OC(=O)[C@H](CC(C)C)OC(=O)[C@H](C)CNC2=O)cc1Cl [Cryptophycin 1]
[1]; Table 1
  KB IC50: 0.005 ng/mL
[1]; Table 2
  KB IC50: 0.0025 ng/mL
[2]; Table 1
  LoVo IC50: 0.003 ng/mL
[2]; Table 2
  LoVo IC50: 0.001 ng/mL
[3]; μg/disk as for E3
  Differential in Zone Units, Corbett Assay: > 400 Zone Units
[3]; μg/disk: 1 12.5, 2 25, 3 25, 4 20, 5 2.9, 6 250, 8 30, 5-FU 2.5, VP-16 5, taxol 0.2, ^c selective against drug-sensitive and drug-resistant cell lines, ^d drug-sensitive cell lines only
  Type of Cytotoxicity, Corbett Assay: E/T
[4]
  Cures: 0/5
  Log Kill: 1.5
  T/C: 6%
H125 Human Adenosq-lung
  % Body Wt. Loss at Nadir: -15%
  Cures: 0/5
  Log Kill: 1.1
  T/C: 9%
  dead: 1/5
[5]; five early stage murine tumors (colon #38, #51, taxol-sensitive and taxol-resistant mammary #16/C/RP, pancreatic #03) and MX-1 breast, H125 lung in SCID mice
  tumor burden T/C: less than 10%
[5]; in vivo testing
  lethal toxicity observed during testing: attributed to leucopenia
Strains of Cryptococcus
  activity against strains of Cryptococcus: very active against strains of Cryptococcus
MX-1 Human Breast
  % Body Wt. Loss at Nadir: -3%
  Cures: 0/5
  Log Kill: 2.0
  T/C: 3%
M17/0 (Adr. Sens.)
  % Body Wt. Loss at Nadir: -10%
  Log Kill: < 1
  T/C: 23%
LNCaP Human Prostate
  % Body Wt. Loss at Nadir: -6%
  T/C: 26%
[6]
  % Body Wt. Loss at Nadir: 0%
  Cures: 0/5
  Log Kill: < 1
  T/C: 27%
[7]
  % Body Wt. Loss at Nadir: -11%
  Log Kill: 1.3
  T/C: 7%
Mam 16/C (mammary #16/C)
  % Body Wt. Loss at Nadir: -1%
  Cures: 0/5
  Log Kill: 1.4
  T/C: 5%
[8]
  SKOV3 IC50: 0.026 ng/mL
[9]
  % Body Wt. Loss at Nadir: 0%
  Log Kill: 1.8
  T/C: 2%
